From article PMC12067093, “Discovery and optimisation of a covalent ligand for TRIM25 and its application to targeted protein ubiquitination” (Chemical Science, 2025)

Biological target: T1, TRIM25 PRYSPRY (Homo sapiens, UniProt Q14258)
T1 construct: His6-TEV (cleaved yes); made in house; host or cells: Sf9 insect cells (baculovirus)
Assay: Intact protein LCMS covalent labelling of recombinant TRIM25 PRYSPRY
Format: binding
Conditions: TRIM25 PRYSPRY 10 μM, 4 °C; for TRIM25 PRYSPRY labelling (%): purified compound 50 μM, 24 h; for TRIM25 PRYSPRY labelling: heterobifunctional compound 50 μM, 20 hours
Protocol: 1 resin (ThermoFisher Scientific, 89964), eluted in 100 mM HEPES pH 7, 500 mM NaCl,
2 300 mM Imidazole, 5% glycerol, 1 mM TCEP, and stored at -80 °C.
5 into a pET49 vector with a His6-HRV-3C (Human Rhinovirus) tag and expressed in
6 BL21 E.coli cells (Agilent Technologies; 230132), with induction at 18 °C overnight by
7 addition of isopropyl β-D-1-thiogalactopyranoside (0.5 mM). Cells were harvested by
8 centrifugation at 4000 rpm in a Beckman J6-M1 rotor for 30 min at 4 °C, the
9 supernatant was discarded and cell pellets were either immediately lysed, or stored at
10 -80°C. The protein was purified via His6-capture on HisPurTM Ni-NTA resin in buffer
11 50 mM HEPES pH 7.5, 300 mM NaCl, 0.5 mM TCEP, 20 mM imidazole, washed
12 extensively with both high salt buffer (50 mM HEPES pH 7.5, 1 M NaCl, 0.5 mM TCEP,
13 20 mM imidazole) and wash buffer (50 mM HEPES pH 7.5, 300 mM NaCl, 0.5 mM
14 TCEP, 20 mM imidazole) before elution in buffer 50 mM HEPES pH 7.5, 300 mM NaCl,
15 0.5 mM TCEP, 500 mM imidazole, and tag cleavage with HRV-3C protease. Cleaved
16 protein was further purified by ion exchange chromatography and size exclusion
17 chromatography into 20 mM HEPES pH 7.5, 150 mM NaCl, 0.5 mM TCEP, and stored
21 For the original chloroacetamide fragment screen, 0.25 μM TRIM25 PRYSPRY or
23 25 mM HEPES pH 7.5, 50 mM NaCl buffer. For intact protein liquid chromatography
24 mass spectrometry (LCMS) kinetic characterisation, 0.5 μM TRIM25 PRYSPRY was
25 used. For selectivity testing with recombinant ubiquitin system protein panel, 10 µM
27 7.5, 50 mM NaCl buffer. Samples were then diluted to 0.5 µM for TRIM25 PRYSPRY,
28 TRIM21 PRYSPRY, OTUD7B OTU, ZRANB1 OTU or 1 µM for TRIM2 NHL, UBCH5B,
29 UBC13K92A, UEV1A, OTUD4 OTU, before injection into the LCMS. For TRIM25
30 PRYSPRY mutants, and for labelling of heterobifunctional compounds, 10 µM protein
32 mM NaCl buffer, and samples were diluted to 1 µM protein before injection into the […]

T1 sequence (Q14258 435-630): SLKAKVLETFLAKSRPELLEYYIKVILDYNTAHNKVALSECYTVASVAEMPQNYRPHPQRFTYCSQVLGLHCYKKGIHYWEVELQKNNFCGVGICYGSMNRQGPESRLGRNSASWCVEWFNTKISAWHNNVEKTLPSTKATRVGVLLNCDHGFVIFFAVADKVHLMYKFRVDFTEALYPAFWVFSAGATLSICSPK

SMILES | TRIM25 PRYSPRY labelling (%) | TRIM25 PRYSPRY labelling [%]
Cc1cc(C(=O)N2CCCN(C(=O)CCl)CC2)ccc1-c1ccccc1 [Compound 10] | 94 | –
CC1Cc2ccccc2N1C(=O)C1CCCN(C(=O)CCl)C1 (centres unmarked) [Compound 11] | 96 | –
Cc1cc(C(=O)N2CCCN(C(=O)CCl)CC2)ccc1-c1cccc(C(=O)NCCOCCOCCNC(=O)C[C@@H]2N=C(c3ccc(Cl)cc3)c3c(sc(C)c3C)-n3c(C)nnc32)c1 [HB1] | – | 49
Cc1cc(C(=O)N2CCCN(C(=O)CCl)CC2)ccc1-c1cccc(C(=O)NCCOCCOCCOCCNC(=O)C[C@@H]2N=C(c3ccc(Cl)cc3)c3c(sc(C)c3C)-n3c(C)nnc32)c1 [HB2] | – | 75
Cc1cc(C(=O)N2CCCN(C(=O)CCl)CC2)ccc1-c1cccc(C(=O)NCCOCCOCCOCCOCCNC(=O)C[C@@H]2N=C(c3ccc(Cl)cc3)c3c(sc(C)c3C)-n3c(C)nnc32)c1 [HB3] | – | 87
